Measurements as given in patent US12606561B2, “Substituted pyrazolo[1,5-a][1,3,5]triazines as CDK inhibitors” (QURIENT CO., LTD., priority 2018, dated 2026).

How the values were obtained:
Format in all cases: biochemical
[1] = target: T1, CDK1/Cyclin B (Homo sapiens, UniProt P06493); assay: Enzymatic assay for CDK1 (LANCE Ultra kinase assay, FRET based); settings: ATP at Km; read-out: CDK1 enzymatic activity IC50
T1 construct: purchased Invitrogen PR4768C
Description: (§1) Enzymatic Binding Assay Protocol for CDK1, CDK2, CDK5 and CDK7
(§2) Inhibition activity of the respective compound on CDK kinase under Km value of ATP was tested in FRET based The LANCE® Ultra kinase assay (Perkin Elmer), which uses a ULight™-labeled peptide substrate and an appropriate Europium-labeled anti-phospho-antibody. […] After 1 min centrifugation at 1000 rpm, purified CDKs/Cyclin complex were added with the following concentrations respectively. […] Data were analyzed using XL Fit software.

[2] = target: T2, CDK5/p25 (Homo sapiens, UniProt Q00535); assay: Enzymatic assay for CDK5 (LANCE Ultra kinase assay, FRET based); settings: ATP at Km
T2 construct: purchased Invitrogen PR8543B
T2 sequence (Q00535 whole entry): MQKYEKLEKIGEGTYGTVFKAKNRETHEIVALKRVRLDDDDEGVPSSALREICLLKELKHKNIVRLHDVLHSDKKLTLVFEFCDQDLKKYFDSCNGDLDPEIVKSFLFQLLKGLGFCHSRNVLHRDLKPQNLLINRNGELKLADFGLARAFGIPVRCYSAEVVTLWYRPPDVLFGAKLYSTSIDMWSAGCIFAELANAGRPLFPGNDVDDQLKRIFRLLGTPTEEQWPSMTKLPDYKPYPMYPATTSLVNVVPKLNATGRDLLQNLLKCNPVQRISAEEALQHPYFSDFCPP
T2 sequence (Q15078 99-307 partner limits assumed): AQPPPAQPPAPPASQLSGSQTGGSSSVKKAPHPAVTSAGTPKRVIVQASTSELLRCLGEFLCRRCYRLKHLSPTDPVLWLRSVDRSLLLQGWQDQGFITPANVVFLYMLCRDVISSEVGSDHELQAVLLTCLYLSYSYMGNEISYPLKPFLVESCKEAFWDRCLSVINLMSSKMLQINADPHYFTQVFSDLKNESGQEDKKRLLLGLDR
Description: as §1
(§3) Inhibition activity of the respective compound on CDK kinase under Km value of ATP was tested in FRET based The LANCE® Ultra kinase assay (Perkin Elmer), which uses a ULight™-labeled peptide substrate and an appropriate Europium-labeled anti-phospho-antibody. Test compounds were made with DMSO solutions, and then 4-fold serial dilutions for 8 doses were prepared using automated liquid handler (POD™ 810, Labcyte) and 80 nL/well of diluted compound solutions were added into the 384-well plates (Greiner, Cat #784075). And then 68 nM of ULight-MBP peptide (Perkin Elmer, Cat #TRF0109-M) and 5 ul/well of ATP (Sigma, Cat #A7699) were added to the plate. After 1 min centrifugation at 1000 rpm, purified CDKs/Cyclin complex were added with the following concentrations respectively. 24 uM for CDK1/Cyclin B (Invitrogen, Cat #PR4768C), 22 uM for CDK2/Cyclin A (Invitrogen, Cat #PV6290), 10 uM for CDK5/p25 (Invitrogen, Cat #PR8543B) and […] for CDK7/Cyclin H/MNAT1 (Invitrogen, Cat #PR6749B) were added to each corresponding plate for CDK1, CDK2, CDK5 and CDK7. Incubate at 23° C. for 60 min and then Eu-labeled anti-phospho-Myelin Basic Protein (PE, Cat #TRF0201-M) and EDTA (Invitrogen, Cat #15575038) mixture in Lance Detection Buffer (Perkin Elmer, Cat #CR97100) was added in each well. After additional incubation at 23° C. for 60 min, test articles were measured the fluorescence using Envision leader (Perkin Elmer, USA) [Laser as excitation light; […] as the first and the second emission filter]. Data were analyzed using XL Fit software.

[3] = target: T3, CDK7/Cyclin H/MNAT1 (Homo sapiens, UniProt P50613); assay: Enzymatic assay for CDK7 (LANCE Ultra kinase assay, FRET based); settings: for IC50: ATP at Km
T3 construct: purchased Invitrogen PR6749B
T3 sequence (P50613 whole entry): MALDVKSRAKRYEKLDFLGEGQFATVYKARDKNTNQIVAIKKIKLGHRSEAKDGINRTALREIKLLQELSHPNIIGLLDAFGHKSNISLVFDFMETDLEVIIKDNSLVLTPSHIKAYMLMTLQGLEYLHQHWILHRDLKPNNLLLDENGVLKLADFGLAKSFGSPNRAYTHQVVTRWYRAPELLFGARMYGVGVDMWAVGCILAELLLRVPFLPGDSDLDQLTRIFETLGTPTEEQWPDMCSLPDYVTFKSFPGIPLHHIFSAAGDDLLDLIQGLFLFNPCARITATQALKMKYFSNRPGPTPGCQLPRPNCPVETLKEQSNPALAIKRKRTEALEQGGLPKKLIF
T3 sequence (P51946 whole entry partner): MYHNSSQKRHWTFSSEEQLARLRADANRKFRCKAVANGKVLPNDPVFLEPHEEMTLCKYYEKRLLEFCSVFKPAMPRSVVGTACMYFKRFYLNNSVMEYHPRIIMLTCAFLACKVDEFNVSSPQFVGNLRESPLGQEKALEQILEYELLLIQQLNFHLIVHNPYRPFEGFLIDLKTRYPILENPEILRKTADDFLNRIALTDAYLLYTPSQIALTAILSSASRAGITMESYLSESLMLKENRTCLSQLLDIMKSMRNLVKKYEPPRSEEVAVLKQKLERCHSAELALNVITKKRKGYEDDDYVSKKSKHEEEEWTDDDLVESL
T3 sequence (P51948 whole entry partner): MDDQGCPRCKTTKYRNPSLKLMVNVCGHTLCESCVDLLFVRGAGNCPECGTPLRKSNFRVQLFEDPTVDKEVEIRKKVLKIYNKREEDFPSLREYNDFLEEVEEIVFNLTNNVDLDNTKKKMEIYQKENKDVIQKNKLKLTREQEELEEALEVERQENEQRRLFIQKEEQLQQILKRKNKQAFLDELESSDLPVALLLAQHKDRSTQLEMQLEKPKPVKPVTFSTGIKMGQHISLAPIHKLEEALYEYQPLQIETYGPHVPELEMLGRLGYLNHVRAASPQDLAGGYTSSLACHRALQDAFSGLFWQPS
Description: as §1, §2

[4] = target: T4, CDK2/Cyclin A (Homo sapiens, UniProt P24941); assay: Enzymatic assay for CDK2 (LANCE Ultra kinase assay, FRET based); settings: ATP at Km
T4 construct: purchased Invitrogen PV6290
Description: as §1, §3

T1 sequence (P06493 whole entry): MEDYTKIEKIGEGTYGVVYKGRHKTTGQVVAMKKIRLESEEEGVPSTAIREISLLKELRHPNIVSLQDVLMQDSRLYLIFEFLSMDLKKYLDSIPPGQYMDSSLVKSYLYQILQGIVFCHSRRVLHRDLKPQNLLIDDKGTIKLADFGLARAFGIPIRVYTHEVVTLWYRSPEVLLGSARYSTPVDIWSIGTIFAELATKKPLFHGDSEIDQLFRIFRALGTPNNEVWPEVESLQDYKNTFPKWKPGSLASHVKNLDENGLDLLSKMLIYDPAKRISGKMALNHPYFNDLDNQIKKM
T1 sequence (P14635 whole entry partner): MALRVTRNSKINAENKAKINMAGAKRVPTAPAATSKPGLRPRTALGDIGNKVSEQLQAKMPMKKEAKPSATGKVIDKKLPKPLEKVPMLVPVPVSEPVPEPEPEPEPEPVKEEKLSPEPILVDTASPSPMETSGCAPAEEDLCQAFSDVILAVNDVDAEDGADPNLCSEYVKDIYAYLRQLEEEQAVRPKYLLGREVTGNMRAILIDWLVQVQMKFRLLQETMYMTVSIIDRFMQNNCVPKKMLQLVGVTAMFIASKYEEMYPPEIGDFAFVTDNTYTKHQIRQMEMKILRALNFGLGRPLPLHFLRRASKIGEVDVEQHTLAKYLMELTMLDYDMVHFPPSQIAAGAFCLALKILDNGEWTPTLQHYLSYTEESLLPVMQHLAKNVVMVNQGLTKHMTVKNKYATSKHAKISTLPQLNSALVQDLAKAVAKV

SMILES	IC50 [1]	IC50 [2]	IC50 [3]	CDK1/CDK7: Selectivity of CDK7 inhibition over CDK1 inhibition [3]	CDK2/CDK7: Selectivity of CDK7 inhibition over CDK2 inhibition [3]	CDK5/CDK7: Selectivity of CDK7 inhibition over CDK5 inhibition [3]	IC50 [4]
CO[C@H]1CC[C@H](Nc2nc(NCc3c(C)cccc3-c3cc4cccc(NC(=O)/C=C/CN(C)C)c4[nH]3)n3ncc(C(C)C)c3n2)CC1 [Compound 129]	> 1000 nM	> 1000 nM	100 to 1000 nM	B (B indicates 50 < [fold] ≤ 500)	B (B indicates 50 < [fold] ≤ 500)	B (B indicates 50 < [fold] ≤ 500)	> 1000 nM
CO[C@H]1CC[C@H](Nc2cc(NCc3ccccc3-c3nccc4cc(NC(=O)/C=C/CN(C)C)ccc34)n3ncc(C(C)C)c3n2)CC1 [Compound 132]	> 1000 nM	> 1000 nM	< 100 nM	A (A indicates [fold] > 500)	A (A indicates [fold] > 500)	A (A indicates [fold] > 500)	> 1000 nM
CNS(=O)(=O)C[C@H]1CC[C@H](Nc2nc(NCc3ccccc3-c3nccc4cc(NC(=O)/C=C/CN(C)C)ccc34)n3ncc(C(C)C)c3n2)CC1 [Compound 134]	> 1000 nM	> 1000 nM	< 100 nM	A (A indicates [fold] > 500)	A (A indicates [fold] > 500)	A (A indicates [fold] > 500)	> 1000 nM
Cc1cccc(-c2ccc3cccc(NC(=O)/C=C/CN(C)C)c3n2)c1CNc1nc(NCC2CCNCC2)nc2c(C(C)C)cnn12 [Compound 138]	> 1000 nM	> 1000 nM	< 100 nM	A (A indicates [fold] > 500)	A (A indicates [fold] > 500)	A (A indicates [fold] > 500)	> 1000 nM
Cc1cccc(-c2cc3cccc(NC(=O)/C=C/CN(C)C)c3[nH]2)c1CNc1nc(NCC2CCNCC2)nc2c(C(C)C)cnn12 [Compound 139]	> 1000 nM	> 1000 nM	< 100 nM	A (A indicates [fold] > 500)	A (A indicates [fold] > 500)	A (A indicates [fold] > 500)	> 1000 nM
CO[C@H]1CC[C@H](Nc2nc(NCc3c(C)cccc3-n3ccc4cc(NC(=O)/C=C/CN(C)C)ccc43)n3ncc(C(C)C)c3n2)CC1 [Compound 140]	> 1000 nM	> 1000 nM	100 to 1000 nM	B (B indicates 50 < [fold] ≤ 500)	B (B indicates 50 < [fold] ≤ 500)	B (B indicates 50 < [fold] ≤ 500)	> 1000 nM
COC[C@H]1CC[C@H](Nc2nc(NCc3ccccc3-c3nccc4cc(NC(=O)/C=C/CN(C)C)ccc34)n3ncc(C(C)C)c3n2)CC1 [Compound 142]	> 1000 nM	> 1000 nM	< 100 nM	A (A indicates [fold] > 500)	A (A indicates [fold] > 500)	A (A indicates [fold] > 500)	> 1000 nM

Further lines, results first:

IC50 [1]	IC50 [2]	IC50 [3]	CDK1/CDK7: Selectivity of CDK7 inhibition over CDK1 inhibition [3]	CDK2/CDK7: Selectivity of CDK7 inhibition over CDK2 inhibition [3]	CDK5/CDK7: Selectivity of CDK7 inhibition over CDK5 inhibition [3]	IC50 [4]	SMILES
> 1000 nM	> 1000 nM	< 100 nM	A (A indicates [fold] > 500)	A (A indicates [fold] > 500)	A (A indicates [fold] > 500)	> 1000 nM	CO[C@H]1CNCC[C@@H]1CNc1nc(NCc2ccccc2-c2nccc3cc(NC(=O)/C=C/CN(C)C)ccc23)n2ncc(C(C)C)c2n1 [Compound 131]
> 1000 nM	> 1000 nM	100 to 1000 nM	B (B indicates 50 < [fold] ≤ 500)	B (B indicates 50 < [fold] ≤ 500)	B (B indicates 50 < [fold] ≤ 500)	> 1000 nM	CC#CC(=O)Nc1ccc2c(-c3ccccc3CNc3nc(N[C@H]4CC[C@H](OC)CC4)nc4c(C(C)C)cnn34)nccc2c1 [Compound 135]
> 1000 nM	> 1000 nM	100 to 1000 nM	B (B indicates 50 < [fold] ≤ 500)	B (B indicates 50 < [fold] ≤ 500)	B (B indicates 50 < [fold] ≤ 500)	> 1000 nM	COC1CCC(CNc2nc(NCc3ccccc3-c3nccc4cc(NC(=O)/C=C/CN(C)C)ccc34)n3ncc(C(C)C)c3n2)CC1 (centres unmarked) [Compound 136]
> 1000 nM	> 1000 nM	< 100 nM	A (A indicates [fold] > 500)	A (A indicates [fold] > 500)	A (A indicates [fold] > 500)	> 1000 nM	C=C(F)C(=O)Nc1cccc2cc(-c3cccc(C)c3CNc3nc(NCC4CNCCO4)nc4c(C(C)C)cnn34)[nH]c12 (centres unmarked) [Compound 141]
> 1000 nM	> 1000 nM	100 to 1000 nM	B (B indicates 50 < [fold] ≤ 500)	B (B indicates 50 < [fold] ≤ 500)	B (B indicates 50 < [fold] ≤ 500)	> 1000 nM	C=C(F)C(=O)Nc1ccc2c(-c3ccccc3CNc3nc(N[C@H]4CC[C@H](CS(=O)(=O)NC)CC4)nc4c(C(C)C)cnn34)nccc2c1 [Compound 143]
> 1000 nM	> 1000 nM	< 100 nM	A (A indicates [fold] > 500)	A (A indicates [fold] > 500)	A (A indicates [fold] > 500)	> 1000 nM	CN[C@H]1CC[C@H](Nc2nc(NCc3ccccc3-c3nccc4cc(NC(=O)/C=C/CN(C)C)ccc34)n3ncc(C(C)C)c3n2)CC1 [Compound 145]
> 1000 nM	> 1000 nM	< 100 nM	A (A indicates [fold] > 500)	A (A indicates [fold] > 500)	A (A indicates [fold] > 500)	> 1000 nM	C=C(F)C(=O)Nc1ccc2c(-c3ccccc3CNc3nc(N[C@H]4CC[C@H](NC)CC4)nc4c(C(C)C)cnn34)nccc2c1 [Compound 146]
> 1000 nM	> 1000 nM	< 100 nM	B (B indicates 50 < [fold] ≤ 500)	B (B indicates 50 < [fold] ≤ 500)	B (B indicates 50 < [fold] ≤ 500)	> 1000 nM	C=C(F)C(=O)Nc1ccc2c(-c3ccccc3CNc3nc(NC[C@H]4CNCCO4)nc4c(C(C)C)cnn34)nccc2c1 [Compound 148]
> 1000 nM	> 1000 nM	< 100 nM	B (B indicates 50 < [fold] ≤ 500)	C (C indicates [fold] ≤ 50)	B (B indicates 50 < [fold] ≤ 500)	> 1000 nM	C=C(F)C(=O)Nc1ccc2c(-c3ccccc3CNc3nc(NC[C@@H]4CNCCO4)nc4c(C(C)C)cnn34)nccc2c1 [Compound 149]
> 1000 nM	> 1000 nM	< 100 nM	A (A indicates [fold] > 500)	A (A indicates [fold] > 500)	A (A indicates [fold] > 500)	> 1000 nM	CC(C)c1cnn2c(NCc3ccccc3-c3nccc4cc(NC(=O)/C=C/CN(C)C)ccc34)nc(O[C@@H]3CCCNC3)nc12 [Compound 152]
